Measurements as given in the Kinase Knowledgebase extract (Sharma et al. 2016).

Columns and labels:
Assay in all cases: Enzyme Assay
PIK3CB (Human) = PIK3CB (Human) (UniProt P42338)
PIK3CA (human) = PIK3CA (human) (UniProt P42336)
PIK3CD (Human) = PIK3CD (Human) (UniProt O00329)
Sequence of PIK3CD (Human) (O00329 whole entry, looked up): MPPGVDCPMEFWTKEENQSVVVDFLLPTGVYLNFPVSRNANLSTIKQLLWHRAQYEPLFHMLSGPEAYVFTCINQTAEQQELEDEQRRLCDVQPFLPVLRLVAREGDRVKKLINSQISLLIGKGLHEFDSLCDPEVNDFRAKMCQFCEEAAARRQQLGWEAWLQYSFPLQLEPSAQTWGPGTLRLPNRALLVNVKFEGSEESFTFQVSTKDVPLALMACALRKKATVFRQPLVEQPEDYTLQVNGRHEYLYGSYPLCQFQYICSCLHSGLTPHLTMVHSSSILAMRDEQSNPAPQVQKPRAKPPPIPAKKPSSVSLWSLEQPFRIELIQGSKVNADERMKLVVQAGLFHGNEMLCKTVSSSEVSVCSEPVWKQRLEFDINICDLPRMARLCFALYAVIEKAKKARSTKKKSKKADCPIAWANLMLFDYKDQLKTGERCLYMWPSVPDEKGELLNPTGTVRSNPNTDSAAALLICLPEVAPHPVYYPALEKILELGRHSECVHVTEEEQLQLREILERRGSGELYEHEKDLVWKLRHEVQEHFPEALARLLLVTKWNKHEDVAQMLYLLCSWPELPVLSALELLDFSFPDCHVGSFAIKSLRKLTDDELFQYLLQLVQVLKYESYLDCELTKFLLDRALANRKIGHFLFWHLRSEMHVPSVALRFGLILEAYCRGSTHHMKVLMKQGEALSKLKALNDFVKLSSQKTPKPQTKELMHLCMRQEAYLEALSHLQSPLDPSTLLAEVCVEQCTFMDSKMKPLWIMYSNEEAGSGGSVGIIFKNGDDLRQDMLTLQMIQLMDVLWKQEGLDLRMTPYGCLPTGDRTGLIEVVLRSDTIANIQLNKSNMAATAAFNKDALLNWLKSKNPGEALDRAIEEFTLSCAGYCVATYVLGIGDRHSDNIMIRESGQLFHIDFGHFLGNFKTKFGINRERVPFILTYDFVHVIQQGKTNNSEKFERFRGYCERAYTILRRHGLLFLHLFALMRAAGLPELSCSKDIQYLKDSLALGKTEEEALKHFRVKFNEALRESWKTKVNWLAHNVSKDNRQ

Sequence of PIK3CA (human) (P42336 whole entry, looked up): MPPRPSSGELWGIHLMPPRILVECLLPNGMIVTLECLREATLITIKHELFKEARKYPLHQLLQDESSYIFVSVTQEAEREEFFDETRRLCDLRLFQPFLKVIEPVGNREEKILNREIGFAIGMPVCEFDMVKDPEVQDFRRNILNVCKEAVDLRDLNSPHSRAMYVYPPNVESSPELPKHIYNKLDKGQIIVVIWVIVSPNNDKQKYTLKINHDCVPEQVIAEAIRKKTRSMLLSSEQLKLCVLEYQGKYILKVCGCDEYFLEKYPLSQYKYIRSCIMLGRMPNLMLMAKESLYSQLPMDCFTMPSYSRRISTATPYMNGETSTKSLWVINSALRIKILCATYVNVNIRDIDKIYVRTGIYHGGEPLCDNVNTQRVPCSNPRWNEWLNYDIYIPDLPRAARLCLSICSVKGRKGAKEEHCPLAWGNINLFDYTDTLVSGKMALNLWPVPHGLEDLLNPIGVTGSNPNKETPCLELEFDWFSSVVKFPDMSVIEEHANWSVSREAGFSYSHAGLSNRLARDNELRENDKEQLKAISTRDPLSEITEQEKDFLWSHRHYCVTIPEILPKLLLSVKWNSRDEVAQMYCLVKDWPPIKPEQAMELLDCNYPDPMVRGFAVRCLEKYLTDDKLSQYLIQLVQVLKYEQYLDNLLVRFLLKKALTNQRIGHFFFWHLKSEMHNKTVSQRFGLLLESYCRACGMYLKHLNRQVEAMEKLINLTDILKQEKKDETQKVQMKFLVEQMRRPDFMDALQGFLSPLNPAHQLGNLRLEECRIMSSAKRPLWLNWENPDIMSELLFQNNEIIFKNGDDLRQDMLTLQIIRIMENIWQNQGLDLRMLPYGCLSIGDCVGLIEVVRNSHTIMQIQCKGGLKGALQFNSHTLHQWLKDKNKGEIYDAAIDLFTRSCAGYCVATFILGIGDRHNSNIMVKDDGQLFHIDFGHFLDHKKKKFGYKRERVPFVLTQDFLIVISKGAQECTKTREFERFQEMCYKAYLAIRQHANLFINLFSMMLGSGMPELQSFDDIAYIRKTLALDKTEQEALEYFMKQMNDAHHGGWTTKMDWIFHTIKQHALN
Sequence of PIK3CB (Human) (P42338 whole entry, looked up): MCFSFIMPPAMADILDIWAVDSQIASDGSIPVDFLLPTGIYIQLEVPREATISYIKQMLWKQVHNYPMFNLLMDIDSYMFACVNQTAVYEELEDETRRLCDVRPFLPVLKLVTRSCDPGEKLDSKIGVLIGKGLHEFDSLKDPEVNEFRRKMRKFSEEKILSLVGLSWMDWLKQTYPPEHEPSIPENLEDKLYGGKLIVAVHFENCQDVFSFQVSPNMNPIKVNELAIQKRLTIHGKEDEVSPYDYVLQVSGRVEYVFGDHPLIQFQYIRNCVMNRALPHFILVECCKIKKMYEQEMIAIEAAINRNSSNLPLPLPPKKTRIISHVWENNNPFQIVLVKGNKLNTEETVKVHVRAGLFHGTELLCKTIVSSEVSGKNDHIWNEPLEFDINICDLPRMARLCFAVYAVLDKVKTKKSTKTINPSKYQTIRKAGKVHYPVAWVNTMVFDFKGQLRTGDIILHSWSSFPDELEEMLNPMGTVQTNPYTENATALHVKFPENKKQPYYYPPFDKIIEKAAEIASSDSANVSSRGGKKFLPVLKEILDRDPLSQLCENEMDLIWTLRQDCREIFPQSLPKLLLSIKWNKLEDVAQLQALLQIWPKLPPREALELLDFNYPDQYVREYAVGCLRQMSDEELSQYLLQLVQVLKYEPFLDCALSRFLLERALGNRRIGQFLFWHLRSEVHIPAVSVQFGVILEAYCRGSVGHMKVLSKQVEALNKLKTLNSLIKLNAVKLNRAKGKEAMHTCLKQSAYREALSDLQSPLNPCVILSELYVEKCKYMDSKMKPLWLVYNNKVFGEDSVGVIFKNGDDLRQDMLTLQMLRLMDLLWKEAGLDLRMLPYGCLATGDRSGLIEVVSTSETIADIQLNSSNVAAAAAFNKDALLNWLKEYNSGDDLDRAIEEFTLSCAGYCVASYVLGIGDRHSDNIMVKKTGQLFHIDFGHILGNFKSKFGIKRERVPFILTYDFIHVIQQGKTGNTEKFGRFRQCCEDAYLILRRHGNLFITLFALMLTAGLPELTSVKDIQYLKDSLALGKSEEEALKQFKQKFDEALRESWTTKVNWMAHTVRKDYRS

| SMILES | IC50 (PIK3CB (Human)) [nM] | IC50 (PIK3CA (human)) [µM] | IC50 (PIK3CD (Human)) [nM] |
| --- | --- | --- | --- |
| Cc1ccccc1-n1c(Cn2nc(C#N)c3c(N)ncnc32)cc2cccc(C)c2c1=O | > 10000 | > 10 |  |
| Cc1cccc2cc([C@H](C)Nc3ncnc4[nH]cc(Br)c34)n(-c3ccccc3)c(=O)c12 | < 100 | 0.1 to 1 | < 100 |
| Cc1cccc2cc([C@H](C)Nc3ncnc4[nH]cc(C#N)c34)n(C3CC3)c(=O)c12 | < 100 | 0.1 to 1 | < 100 |
| Cc1ccccc1-n1c(Cn2nc(-c3ccc4nc(N)ncc4c3)c3c(N)ncnc32)cc2cccc(C)c2c1=O | 100 to 1000 |  |  |
| Cc1cccc2cc([C@H](C)Nc3ncnc4[nH]cc(F)c34)n(-c3ccccc3)c(=O)c12 | < 100 |  | < 100 |
| Cc1cccc2cc(C(C)Nc3ncnc4[nH]cnc34)n(C3CCN(C)CC3)c(=O)c12 (configuration not stated) | 100 to 1000 | > 10 | < 100 |
| Cc1cccc2cc([C@H](C)Nc3ncnc4[nH]c(Cl)nc34)n(C3CC3)c(=O)c12 | > 10000 | > 10 | > 10000 |
| CC(=O)Nc1nc2ccc(-c3nn(Cc4cc5cccc(C)c5c(=O)n4C)c4ncnc(N)c34)cc2s1 | 100 to 1000 |  |  |
| Cc1cccc2cc(Cn3nc(-c4cccc(F)c4)c4c(N)ncnc43)n(-c3ccccc3F)c(=O)c12 | > 10000 | > 10 |  |
| Cc1cccc2cc(Cn3nc(-c4ccc(Cl)c(O)c4)c4c(N)ncnc43)n(-c3ccccc3F)c(=O)c12 | > 10000 | > 10 |  |
| Cc1ccccc1-n1c(Cn2nc(CN3CCOCC3)c3c(N)ncnc32)cc2cccc(C)c2c1=O | > 10000 | > 10 |  |
| Cc1cccnc1-n1c(Cn2nc(C#C[C@@H](C)O)c3c(N)ncnc32)cc2cccc(C)c2c1=O | > 10000 | > 10 | 100 to 1000 |
| Cc1cccc2cc([C@H](C)Nc3ncnc4[nH]nc(C(N)=O)c34)n(C3CC3)c(=O)c12 | < 100 |  | < 100 |
| Cc1cccc2cc(Cn3nc(C#C[C@@H](C)O)c4c(N)ncnc43)n(-c3ccccc3O)c(=O)c12 | > 10000 | > 10 |  |
| Cc1cccc2cc(Cn3nc(-c4ccc5sc(N)nc5c4)c4c(N)ncnc43)n(-c3ccccc3)c(=O)c12 | 100 to 1000 | 0.1 to 1 | < 100 |
| Cc1cccc2cc([C@H](C)Nc3ncnc4[nH]cc(C(N)=O)c34)n(C3CC3)c(=O)c12 | < 100 | 0.1 to 1 | < 100 |
| COc1cc(F)cc(-c2nn(Cc3cc4cccc(C)c4c(=O)n3-c3ccccc3C)c3ncnc(N)c23)c1 | > 10000 | > 10 | 100 to 1000 |
| CC(=O)Nc1nc2ccc(-c3nn(Cc4cc5cccc(C)c5c(=O)n4-c4ccccc4)c4ncnc(N)c34)cc2[nH]1 | > 10000 | > 10 |  |
| Cc1cccc2cc(Cn3nc(-c4ccc5oc(N)nc5c4)c4c(N)ncnc43)n(C3CCC3)c(=O)c12 | 100 to 1000 | 0.1 to 1 | < 100 |
| Cc1ccccc1-n1c(Cn2nc(-c3ccc(F)c(O)c3)c3c(N)ncnc32)cc2ccccc2c1=O | > 10000 | > 10 |  |
| Cc1cccc2cc([C@H](C)Nc3ncnc4[nH]c(Cl)nc34)n(-c3ccccc3)c(=O)c12 | > 10000 | > 10 | > 10000 |
| Cc1ccccc1-n1c(Cn2nc(-c3cn[nH]c3)c3c(N)ncnc32)cc2ccccc2c1=O | > 10000 | > 10 | 100 to 1000 |
| Cc1cccc2cc(C(C)Nc3nc(N)nc4[nH]cnc34)n(-c3ccccc3)c(=O)c12 (configuration not stated) | < 100 | 0.1 to 1 | < 100 |
| Cc1ccccc1-n1c(Cn2nc(C#C[C@@H](C)O)c3c(N)ncnc32)cc2cccc(C)c2c1=O | > 10000 | > 10 |  |

| SMILES | IC50 (PIK3CB (Human)) [nM] | IC50 (PIK3CA (human)) [µM] | IC50 (PIK3CD (Human)) [nM] |
| --- | --- | --- | --- |
| COC(=O)c1nn(Cc2cc3cccc(C)c3c(=O)n2-c2ccccc2C)c2ncnc(N)c12 | > 10000 | > 10 | 100 to 1000 |
| CCC(Nc1ncnc2[nH]cnc12)c1cc2ccccc2c(=O)n1-c1ccccc1 (configuration not stated) | > 10000 | > 10 | < 100 |
| COc1cc(-c2nn(Cc3cc4cccc(C)c4c(=O)n3-c3ccccc3C)c3ncnc(N)c23)ccc1Cl | > 10000 | > 10 | 100 to 1000 |
| Cc1cccc2cc(Cn3nc(-c4cc(O)cc(F)c4)c4c(N)ncnc43)n(-c3ccccc3O)c(=O)c12 | 100 to 1000 |  |  |
| Cc1ccccc1-n1c(Cn2nc(CC#N)c3c(N)ncnc32)cc2cccc(C)c2c1=O | > 10000 |  | < 100 |
| Cc1cccnc1-n1c(Cn2nc(-c3ccc(F)c(O)c3)c3c(N)ncnc32)cc2cccc(C)c2c1=O | > 10000 | > 10 |  |
| Cc1cccc2cc(Cn3nc(-c4cnn(C)c4)c4c(N)ncnc43)n(-c3ccccc3F)c(=O)c12 | > 10000 | > 10 |  |
| Cc1cccc2cc(Cn3nc(-c4cc(O)cc(F)c4)c4c(N)ncnc43)n(-c3ccccc3C(C)C)c(=O)c12 | 100 to 1000 | 0.1 to 1 |  |
| Cc1ccccc1-n1c(Cn2nc(CCC(=O)N3CCOCC3)c3c(N)ncnc32)cc2cccc(C)c2c1=O | > 10000 | > 10 |  |
| CC(=O)Nc1nc2ccc(-c3nn(Cc4cc5cccc(C)c5c(=O)n4C4CCC4)c4ncnc(N)c34)cc2s1 | 100 to 1000 |  |  |
| Cc1ccccc1-n1c(Cn2nc(-c3cccc(O)c3)c3c(N)ncnc32)cc2cccc(F)c2c1=O | > 10000 | > 10 |  |
| Cc1cccc2cc([C@H](C)Nc3ncc(C(F)(F)F)c(N)n3)n(-c3ccccc3)c(=O)c12 | > 10000 | > 10 |  |
| CCn1c(Cn2nc(-c3ccc4nc(NC(C)=O)sc4c3)c3c(N)ncnc32)cc2cccc(C)c2c1=O | 100 to 1000 |  |  |
| Cc1cccc2cc(Cn3nc(-c4cc(O)cc(F)c4)c4c(N)ncnc43)n(-c3ccccc3Cl)c(=O)c12 | 100 to 1000 |  |  |
| Cc1cccc2cc(Cn3nc(-c4cn[nH]c4)c4c(N)ncnc43)n(-c3ccccc3C(C)C)c(=O)c12 | 100 to 1000 |  |  |
| Cc1cccc2cc(Cn3nc(-c4cccc(O)c4)c4c(N)ncnc43)n(C(C)C)c(=O)c12 | 100 to 1000 | > 10 |  |
| Cc1cccc2cc(Cn3nc(CF)c4c(N)ncnc43)n(-c3ccccc3)c(=O)c12 | > 10000 |  | < 100 |
| CCc1ccccc1-n1c(Cn2nc(-c3cc(O)cc(F)c3)c3c(N)ncnc32)cc2cccc(C)c2c1=O | 100 to 1000 |  |  |
| Cc1ccccc1-n1c(Cn2nc(-c3ccc(Cl)c(O)c3)c3c(N)ncnc32)cc2ccccc2c1=O | > 10000 | > 10 |  |
| Cc1ccccc1-n1c(CN(C)c2ncnc3[nH]cnc23)cc2cccc(C)c2c1=O | > 10000 | > 10 |  |
| Cc1cccc2cc(Cn3nc(I)c4c(N)ncnc43)n(-c3ccccc3O)c(=O)c12 | > 10000 | > 10 |  |
| Cc1cccc2cc(Cn3nc(-c4cccc(O)c4)c4c(N)ncnc43)n(-c3ccccc3)c(=O)c12 | > 10000 | > 10 |  |
| CC(=O)Nc1nc2cc(-c3nn(Cc4cc5cccc(C)c5c(=O)n4-c4ccccc4)c4ncnc(N)c34)ccc2o1 | < 100 |  | < 100 |
| Cc1cccc2cc(Cn3nc(C#N)c4c(N)ncnc43)n(-c3ccccc3F)c(=O)c12 | > 10000 | > 10 |  |

| SMILES | IC50 (PIK3CB (Human)) [nM] | IC50 (PIK3CA (human)) [µM] | IC50 (PIK3CD (Human)) [nM] |
| --- | --- | --- | --- |
| Cc1cccc2cc(C(C)Nc3ncnc4[nH]cnc34)n(C3CC3)c(=O)c12 (configuration not stated) | 100 to 1000 |  | < 100 |
| Cc1cccc2cc(Cn3nc(-c4ccc(F)c(O)c4)c4c(N)ncnc43)n(C3CCCC3)c(=O)c12 | > 10000 | > 10 |  |
| CCc1ccccc1-n1c(Cn2nc(-c3cccc(O)c3)c3c(N)ncnc32)cc2cccc(C)c2c1=O | > 10000 | > 10 |  |
| Cc1cccc2cc([C@H](C)Nc3ncnc4[nH]ccc34)n(C3CC3)c(=O)c12 | < 100 |  | < 100 |
| Cc1cccc2cc([C@H](C)Nc3cc(N)nc(N)n3)n(C3CC3)c(=O)c12 | > 10000 | > 10 |  |
| Cc1ccccc1-n1c(Cn2nc(CF)c3c(N)ncnc32)cc2cccc(C)c2c1=O | > 10000 |  | < 100 |
| Cc1cccc2cc(C(C)Nc3ncnc4[nH]cnc34)n(-c3ccc(F)cc3)c(=O)c12 (configuration not stated) | 100 to 1000 |  | < 100 |
| Cc1cccc2cc(Cn3nc(-c4cccc(O)c4)c4c(N)ncnc43)n(-c3ccccc3C(C)C)c(=O)c12 | 100 to 1000 | > 10 |  |
| Cc1cccc2cc(Cn3nc(I)c4c(N)ncnc43)n(C3CCC3)c(=O)c12 | > 10000 | > 10 |  |
| Cc1cccc2cc([C@H](C)Nc3ncnc4[nH]nc(C(N)=O)c34)n(-c3ccccc3)c(=O)c12 | < 100 |  | < 100 |
| Cc1cccc2cc([C@H](C)Nc3ncnc4[nH]cnc34)n(C3CC3)c(=O)c12 | < 100 |  | < 100 |
| Cc1cccc2cc(Cn3nc(-c4cccc(O)c4)c4c(N)ncnc43)n(C3CC3)c(=O)c12 | 100 to 1000 | 0.1 to 1 |  |
| Cc1cccc2cc([C@H](C)Nc3ncnc4[nH]nc(C#N)c34)n(-c3ccccc3)c(=O)c12 | < 100 |  | < 100 |
| CC(=O)Nc1nc2cc(-c3nn(Cc4cc5cccc(C)c5c(=O)n4-c4ccccc4C)c4ncnc(N)c34)ccc2o1 | 100 to 1000 |  | < 100 |
| Cc1cccc2cc(Cn3nc(C#C[C@@H](C)O)c4c(N)ncnc43)n(C3CCCCC3)c(=O)c12 | > 10000 | > 10 |  |
| Cc1ccccc1-n1c(Cn2nc(-c3ccc4ncnc(N)c4c3)c3c(N)ncnc32)cc2cccc(C)c2c1=O | > 10000 |  |  |
| Cc1cccc2cc(Cn3nc(C(C)C)c4c(N)ncnc43)n(-c3ccccc3)c(=O)c12 | > 10000 | > 10 |  |
| CCC(Nc1ncnc2[nH]cnc12)c1cc2cccc(C)c2c(=O)n1-c1c(F)cccc1F (configuration not stated) | > 10000 |  |  |
| Cc1cccc2cc(Cn3nc(I)c4c(N)ncnc43)n(C(C)C)c(=O)c12 | > 10000 | > 10 |  |
| Cc1ccccc1-n1c(Cn2nc(-c3ccc(F)c(O)c3)c3c(N)ncnc32)cc2cccc(F)c2c1=O | > 10000 | > 10 |  |
| CCN(Cc1cc2cccc(C)c2c(=O)n1-c1ccccc1C)c1ncnc2[nH]cnc12 | > 10000 | > 10 |  |
| Cc1ccccc1-n1c(Cn2nc(-c3ccc4oc(N)nc4c3)c3c(N)ncnc32)cc2cccc(C)c2c1=O |  | 0.1 to 1 | < 100 |
| Cc1cccc2cc([C@H](C)Nc3ncnc4[nH]ncc34)n(-c3ccccc3)c(=O)c12 |  | > 10 | 100 to 1000 |
